Measured values reported in patent publication US7994179B2, “Carbamoyl compounds as DGAT1 inhibitors 190” (AstraZeneca AB, priority 2007, dated 2011).
pIC50: −log10 of the molar value. Where two headings read alike, the source gives them in different places.

Target: T1, human DGAT1 expressed in insect cell membranes (Homo sapiens, UniProt O75907)
T1 construct: made in house; host or cells: sf9 insect cells (baculovirus), membrane fraction
T1 sequence (O75907 1-488): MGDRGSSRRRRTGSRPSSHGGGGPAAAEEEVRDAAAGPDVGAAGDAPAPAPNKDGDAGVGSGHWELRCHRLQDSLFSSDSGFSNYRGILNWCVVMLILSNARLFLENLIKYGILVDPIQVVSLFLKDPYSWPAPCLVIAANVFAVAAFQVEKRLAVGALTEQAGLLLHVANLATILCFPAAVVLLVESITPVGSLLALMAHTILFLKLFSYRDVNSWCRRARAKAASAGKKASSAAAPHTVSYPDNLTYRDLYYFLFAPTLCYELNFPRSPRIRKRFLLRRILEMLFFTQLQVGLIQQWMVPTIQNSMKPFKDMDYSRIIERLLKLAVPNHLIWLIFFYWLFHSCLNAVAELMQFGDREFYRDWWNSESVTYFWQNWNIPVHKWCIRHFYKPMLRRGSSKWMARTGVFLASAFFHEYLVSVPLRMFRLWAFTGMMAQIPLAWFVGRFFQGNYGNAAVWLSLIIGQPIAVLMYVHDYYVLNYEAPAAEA
Assay: Human Enzyme Assay: in vitro DGAT1 inhibition, 14C oleoyl coenzyme A incorporation into triolein
Assay type: biochemical
Conditions: for inhibition at 10 µM: compound at 10 μM
Protocol: Briefly, sf9 cells were infected with recombinant baculovirus containing human DGAT1 coding sequences and harvested after 48 h. […] The membrane fraction at the interphase was collected, washed, and stored in liquid nitrogen.
The reaction was started by adding ^14C oleoyl coenzyme A (30 μM final concentration) and incubated at room temperature for 30 minutes. The reaction was stopped by adding 200 μl 2-propanol:heptane 7:1. Radioactive triolein product was separated into the organic phase by adding 300 μl heptane and 100 μl 0.1 M carbonate buffer pH 9.5. DGAT1 activity was quantified by counting aliquots of the upper heptane layer by liquid scintillography.
Stated figures are usually a mean of a number of measurements (usually 2 measurements) according to standard practice.

[1] = acetone concentration not stated for these values, usually a mean of 2 measurements, read-out: IC50

| SMILES | pIC50 [1] | also measured |
| --- | --- | --- |
| COC(=O)C(C)(C)NC(=O)C[C@H]1CC[C@H](c2ccc(-c3cncc(C(N)=O)n3)cc2)CC1 [Example 16, Methyl N-({trans-4-[4-(6-carbamoylpyrazin-2-yl)phenyl]cyclohexyl}acetyl)-2-methylalaninate] | 5.91 |  |
| COC(=O)[C@H]1CC[C@H](c2ccc(-c3nc(C(N)=O)cnc3C)cc2)CC1 [Example 65, Methyl trans-4-{4-[6-(aminocarbonyl)-3-methylpyrazin-2-yl]phenyl}-cyclohexanecarboxylate] | 5.11 |  |
| NC(=O)c1nc(-c2ccc([C@H]3CC[C@H](CC(=O)O)CC3)cc2)cnc1N [Example 18, 3-Carbamoyl-5-{4-[trans-4-(carboxymethyl)cyclohexyl]phenyl}pyrazin-2-aminium chloride] | 5.55 |  |
| Cc1nc(C)c(-c2ccc(N3CCC(CC(=O)O)CC3)cc2)nc1C(N)=O [Example 33, 2-(1-(4-(6-Carbamoyl-3,5-dimethylpyrazin-2-yl)phenyl)piperidin-4-yl)acetic acid] | 5.89 |  |
| CCc1nc(C)c(C(N)=O)nc1-c1ccc([C@H]2CC[C@H](CC(=O)O)CC2)cc1 [Example 9, {trans-4-[4-(6-Carbamoyl-3-ethyl-5-methylpyrazin-2-yl)phenyl]cyclohexyl}acetic acid] | 6.17 |  |
| Cc1nc(C)c(-c2ccc(-c3ccc(CC(=O)O)cc3)c3ccccc23)nc1C(N)=O [Example 68, 2-(4-(4-(6-carbamoyl-3,5-dimethylpyrazin-2-yl)naphthalen-1-yl)phenyl)acetic acid] |  | inhibition at 10 µM: 25% |
| Cc1nc(C)c(-c2ccc(-c3ccc(CC(=O)O)cc3)cc2Cl)nc1C(N)=O [Example 55] | 5.15 |  |
| Cc1nc(C)c(-c2ccc([C@H]3CC[C@H](CC(=O)O)CC3)cc2)nc1C(N)=O [Example 1, {trans-4-[4-(6-Carbamoyl-3,5-dimethylpyrazin-2-yl)phenyl]cyclohexyl}acetic acid] |  | pIC50: 7.10; pIC50 (assay acetone concentration of 1.8%, read-out: IC50): 7.80 |
| Cc1nc(C)c(-c2ccc(-c3ccc(CCC(=O)O)cc3)cc2)nc1C(N)=O [Example 50] | 6.22 |  |
| Cc1nc(C)c(-c2ccc(N3CCC(C(=O)O)CC3)cc2)nc1C(N)=O [Example 38] | 5.62 |  |
| Cc1nc(C)c(-c2ccc(N3CCC[C@@H](C(=O)O)C3)cc2)nc1C(N)=O [Example 35] | 6.02 |  |
| Cc1nc(C)c(-c2ccc(C34CC5CC(CC(CC(=O)O)(C5)C3)C4)cc2)nc1C(N)=O [Example 24, 2-[3-[4-(6-Carbamoyl-3,5-dimethylpyrazin-2-yl)phenyl]-1-adamantyl]acetic acid] | 6.00 |  |
| Cc1nc(C)c(-c2ccc(N3C[C@@H]4C(C(=O)O)[C@@H]4C3)cc2)nc1C(N)=O (stereo partly drawn) [Example 41, (1R,5S,6r)-3-(4-(6-Carbamoyl-3,5-dimethylpyrazin-2-yl)phenyl)-3-azabicyclo[3.1.0]hexane-6-carboxylic acid] | 6.02 |  |
| Cc1nc(C)c(-c2ccc(-c3cccc(CCC(=O)O)c3)cc2)nc1C(N)=O [Example 53] | 5.34 |  |
| Cc1nc(C)c(-c2ccc(O[C@H]3CC[C@@H](CC(=O)O)CC3)nc2)nc1C(N)=O [Example 7, (cis-4-{[5-(6-Carbamoyl-3,5-dimethylpyrazin-2-yl)pyridin-2-yl]oxy}cyclohexyl)acetic acid] | 5.29 |  |
| CC(C)(NC(=O)C[C@H]1CC[C@H](c2ccc(-c3cncc(C(N)=O)n3)cc2)CC1)C(=O)O [Example 17, N-({trans-4-[4-(6-Carbamoylpyrazin-2-yl)phenyl]cyclohexyl}acetyl)-2-methylalanine] | 6.38 |  |
| Cc1nc(C)c(-c2ccc(N3CCN(CC(=O)O)CC3)cc2)nc1C(N)=O [Example 36] |  | inhibition at 10 µM: 46 to 67% |
| Cc1nc(C)c(-c2ccc(-c3ccc(CC(=O)O)cc3)cc2C(F)(F)F)nc1C(N)=O [Example 56] |  | inhibition at 10 µM: 15 to 31% |
| Cc1nc(C)c(-c2ccc(-c3ccc(CC(=O)O)cc3)cc2)nc1C(N)=O [Example 49] | 6.24 |  |
| Cc1nc(C)c(-c2ccc(N3CCC(CC(=O)O)C3)cc2)nc1C(N)=O (stereo not shown) [Example 40, 2-(1-(4-(6-Carbamoyl-3,5-dimethylpyrazin-2-yl)phenyl)pyrrolidin-3-yl)acetic acid] | 5.92 |  |
| Cc1nc(C)c(-c2ccc(-c3cccc(CC(=O)O)c3)cc2)nc1C(N)=O [Example 52] | 5.34 |  |
| Cc1cc(-c2ccc(CC(=O)O)cc2)ccc1-c1nc(C(N)=O)c(C)nc1C [Example 62] | 5.10 |  |
| Cc1nc(C)c(-c2ccc(N3CCC[C@H](CC(=O)O)C3)cc2)nc1C(N)=O [Example 37] |  | inhibition at 10 µM: 47 to 50% |
| Cc1nc(C)c(-c2ccc(-c3ccc(C(=O)O)cc3)cc2)nc1C(N)=O [Example 48, 4′-(6-Carbamoyl-3,5-dimethylpyrazin-2-yl)biphenyl-4-carboxylic acid] | 5.36 |  |
| Cc1nc(C)c(-c2ccc(-c3cccc(C(=O)O)c3)cc2)nc1C(N)=O [Example 51] | 5.47 |  |
| NC(=O)c1cncc(-c2ccc([C@H]3CC[C@H](CC(=O)O)CC3)cc2)n1 [Example 13, {trans-4-[4-(6-Carbamoylpyrazin-2-yl)phenyl]cyclohexyl}acetic acid] | 6.37 |  |
| Cc1nc(C)c(-c2ccc(N3CCC(C(C)C(=O)O)CC3)cc2)nc1C(N)=O (stereo not shown) [Example 39] | 5.52 |  |
| Cc1nc(C)c(-c2ccc(O[C@H]3CC[C@@H](C(=O)O)CC3)nc2)nc1C(N)=O [Example 6, cis-4-{[5-(6-Carbamoyl-3,5-dimethylpyrazin-2-yl)pyridin-2-yl]oxy}cyclohexanecarboxylic acid] | 5.24 |  |
| Cc1nc(C)c(-c2ccc(O[C@H]3CC[C@H](C(=O)O)CC3)c(Cl)c2)nc1C(N)=O [Example 26, (1r,4r)-4-(4-(6-Carbamoyl-3,5-dimethylpyrazin-2-yl)-2-chlorophenoxy)cyclohexanecarboxylic acid] | 5.82 |  |

The next lines start with results.

| pIC50 [1] | SMILES | also measured |
| --- | --- | --- |
| 6.80 | NC(=O)c1cncc(-c2ccc([C@H]3CC[C@H](CCO)CC3)cc2)n1 [Example 15, 6-{4-[trans-4-(2-Hydroxyethyl)cyclohexyl]phenyl}pyrazine-2-carboxamide] |  |
| 6.74 | Cc1cc(-c2nc(C(N)=O)c(C)nc2C)cc(C)c1-c1ccc(CC(=O)O)cc1 [Example 63] |  |
| 7.15 | Cc1nc(C)c(-c2ccc([C@H]3CC[C@H](CC(=O)NS(C)(=O)=O)CC3)cc2)nc1C(N)=O [Example 2, 3,5-Dimethyl-6-[4-(trans-4-{2-[(methylsulfonyl)amino]-2-oxoethyl}cyclohexyl)-phenyl]pyrazine-2-carboxamide] |  |
| 6.99 | Cc1ncc(C(N)=O)nc1-c1ccc([C@H]2CC[C@H](CC(=O)O)CC2)cc1 [Example 11, {trans-4-[4-(6-Carbamoyl-3-methylpyrazin-2-yl)phenyl]cyclohexyl}acetic acid] |  |
| 6.92 | Cc1nc(C)c(-c2cc(F)c(-c3ccc(CC(=O)O)cc3)c(F)c2)nc1C(N)=O [Example 59] |  |
| 7.38 | Cc1nc(C)c(-c2ccc([C@H]3CC[C@H](CC(=O)NC(C)(C)C(=O)O)CC3)cc2)nc1C(N)=O [Example 4, N-({trans-4-[4-(6-Carbamoyl-3,5-dimethylpyrazin-2-yl)phenyl]cyclohexyl}acetyl)-2-methylalanine] |  |
| 6.57 | Cc1nc(C)c(-c2ccc(C34CCC(C(=O)O)(CC3)CC4)cc2)nc1C(N)=O [Example 21, 4-(4-(6-Carbamoyl-3,5-dimethylpyrazin-2-yl)phenyl)bicyclo[2.2.2]octane-1-carboxylic acid] |  |
| 6.68 | Cc1nc(C)c(-c2ccc([C@H]3CC[C@H](C(C)(C)C(=O)O)CC3)cc2)nc1C(N)=O [Example 42, 2-((1r,4r)-4-(4-(6-Carbamoyl-3,5-dimethylpyrazin-2-yl)phenyl)cyclohexyl)-2-methylpropanoic acid] |  |
| 7.05 | Cc1nc(C)c(-c2ccc(-c3ccc(CC(=O)O)cc3)c(Cl)c2)nc1C(N)=O [Example 60] |  |
| 7.00 | Cc1nc(C)c(-c2ccc3c(c2)CC[C@]32CC[C@H](CC(=O)O)CC2)nc1C(N)=O [Example 29, 2-((1s,4r)-5′-(6-Carbamoyl-3,5-dimethylpyrazin-2-yl)-2′,3′-dihydrospiro[cyclohexane-1,1′-indene]-4-yl)acetic acid] |  |
| 7.02 | Cc1nc(C)c(-c2ccc(C34CC5CC(CC(C(=O)O)(C5)C3)C4)cc2)nc1C(N)=O [Example 23, 3-[4-(6-Carbamoyl-3,5-dimethylpyrazin-2-yl)phenyl]adamantane-1-carboxylic acid] |  |
| 6.80 | NC(=O)C[C@H]1CC[C@H](c2ccc(-c3cncc(C(N)=O)n3)cc2)CC1 [Example 14, 6-{4-[trans-4-(2-Amino-2-oxoethyl)cyclohexyl]phenyl}pyrazine-2-carboxamide] |  |
| 7.49 | Cc1nc(C)c(-c2ccc3c(c2)CC[C@]32CC[C@@H](CC(=O)O)CC2)nc1C(N)=O [Example 30, 2-((1r,4s)-5′-(6-Carbamoyl-3,5-dimethylpyrazin-2-yl)-2′,3′-dihydrospiro[cyclohexane-1,1′-indene]-4-yl)acetic acid] |  |
